Experiments:
[1] = system: MDA-MB-231 cells; assay: Chemosensitisation of MDA-MB-231 cells to etoposide (clonogenic assay); type: cell-based, human; details: 200 nM
Procedure: FIG. 14 illustrates chemosensitisation of MDA-MB-231 cells to etoposide. MDA-MB-231 cells were transfected with 200 nM siRNA R4 or scrambled control duplex, re-seeded the following day at 2000 cells/6 cm dish, and the following day treated overnight with etoposide at the indicated concentrations. Thereafter the drug was washed off, dishes were incubated for 1 week at 37° C., and visible colonies were stained and counted.

[2] = system: IGF1R mRNA; assay: Oligonucleotide scanning array hybridisation with labelled transcript; type: binding, human; details: scanning array, peak 4 region (FIG. 11B)
Procedure: Scanning arrays complementary to the region of the IGF1R mRNA from position 537-685 were prepared using the standard techniques described in Southern E. M. et al., Nucleic Acids Res., 1994, 22(8): 1368-1373; and Sohail, M. and Southern, E. M. “Using oligonucleotide scanning arrays to find effective antisense reagents”, Methods in Molecular Biology, vol. 170: DNA Arrays: Methods and Protocols, Ed J. B. Rampal, Humana Press Inc., Totowa, N.J.
The scanning arrays comprise sets of oligonucleotides of various lengths. A series of oligonucleotides, complementary to the target mRNA, is made by sequential coupling of nucleotides to a solid surface. The DNA synthesis reagents are applied to a confined area on the surface of the solid support using a mask. The mask is shifted along the surface after each round of coupling, resulting in a series of oligonucleotides each complementary to a region of the target sequence.
• 2. Remove 1 μL for quantitation (see below). • 3. Remove unincorporated label by Sephadex® G25 column chromatography (see Note 11). • 4. Save 1 μL of the purified transcript for quantitation (see below). • 5. Check the integrity of the transcript by denaturing polyacrylamide gel electrophoresis (10). • 6. Add 10 μL of the scintillation fluid to the samples saved in Steps 2 and 4. • 7. Mix by vortexing and count the samples in a scintillation counter for 1 min. • 8. Calculate the percent incorporation: [formula] • 9. Calculate the amount of RNA made: [formula] Hybridisation to Arrays Made on Polypropylene • 1. Place the array in the hybridisation tube, coiling it in a spiral. • 2. Dilute the radiolabelled transcript in an appropriate volume (10-20 mL depending upon the size of the array and the hybridisation tube) of hybridisation buffer. The mix should cover the array along the length of the tube. • 3. Place items 1 and 2 in the oven at desired temperature for 30 min. Also put approximately 100 mL of the hybridisation buffer in the oven: this is to be used to wash the array at the end of hybridisation. • 4. Pour the hybridisation mix into the tube containing the array and hybridise for 3-4 h. • 5. Remove the hybridisation mix. Briefly wash the array with the hybridisation buffer from Step 3, air dry, cover with cling film and expose to a storage phosphor screen for 16-20 h (see Note 12). • 6. Scan the screen on PhosphorImager or STORM and analyse the image using xvseq (see below). Hybridisation to Arrays Made on Glass • 1. Clean the non-array glass plate with acetone and ethanol to ensure it is grease-free and siliconise it by treatment with dimethyl dichlorosilane solution and place it in lidded box. Also place moist paper towel in the box. • 2. Dilute the radiolabelled transcript in an appropriate volume of the hybridisation buffer (for example, for an array of 250 mm×50 mm use 500-750 μL). • 3. Place items 1 and 2 in an incubator at desired temprature for 30 min. Also put approximately 100 mL of the hybridisation buffer in the oven: this is to be used to wash the array at the end of hybridisation. • 4. Using a micropipette, pipette the hybridisation mix in a line evenly along the length of the non-array glass plate, avoiding formation of air bubbles. • 5. Starting at one end, carefully place the scanning array (face down) on top of the hybridisation mix. The mix will spread out and form a thin film between the two plates. Incubate for 3-4 h. • 6. Separate the plates from each other and wash the array plate with hybridisation buffer to remove unbound mix. Drain the plate, air dry, cover with cling film and expose to a storage phosphor screen for 16-20 h. • 7. Scan the screen on PhosphorImager or STORM and analyse the image using xvseq (see below). Alternative Hybridisation Protocol for Glass or Polypropylene • 1. Assemble with clips the array plate (or polypropylene array pasted with PhotoMount™ on a glass plate) and the non-array plate, using rubber tubing as spacers on two sides. • 2. […]

[3] = system: UC101 human ovarian cancer cells; assay: Tumorigenicity of UC101 ovarian cancer cells transfected with siRNA (xenografts); type: in vivo, female athymic (nu/nu mice); details: nu/nu mice
Procedure: UC101 ovarian cancer cells were transfected with 200 nM siRNA, mixed with irradiated NIH-3T3 cells and inoculated into the flanks of female athymic (nu/nu mice).
Tumorigenicity testing was conducted using UC101 human ovarian cancer cells transfected with 200 nM siRNA. After 48 hr the cells were inoculated into the flanks of female athymic (nu/nu mice), using 5×10^6 tumour cells mixed with 5×10^6 irradiated NIH-3T3 cells per mouse. Tumours were measured and volumes calculated as described (Macaulay et al., Oncogene 20: 2029-40, 2001). All procedures were performed in accordance with the Home Office Scientific Procedures Act 1986, and with the approval of the Animal Ethics Committee of Cancer Research UK.

[4] = UC101 cells transfected with 200 nM siRNA

In the case of “R4: RNAi duplex CAAUGAGUACAACUACCGCTT / TTGUUACUCAUGUUGAUGGCG, SEQ ID NO:30 (CAAUGAGUACAACUACCGCNN; second strand not cited, chemistry not fully specified)”, the “Sensitivity to etoposide by clonogenic assay” value [1] is reported as “significantly enhanced”, the “Difference in hybridization intensity between the 19mer ASOs equivalent to R4 and R5” value [2] is reported as ~6.5 fold and the “Duration of tumour growth delay (remaining two animals)” value [3, 4] is reported as ~18 days. For the same substance, the “Time remaining tumour-free (two of 4 mice)” value [3, 4] was > 60 days and the “Animals in which tumour formation was abolished” value ([3]; single transfection, 200 nM siRNA, UC101 cells) was 2/4.

Reference: patent publication US20050255493A1, “Molecular targeting of the IGF-1 receptor” (priority 2002, published 2005)
